What was measured:
[1] = TNF-α-induced SIRS mouse model; format: in vivo; settings: C57BL/6 mice, 10 mg/kg i.p. 15 min before 1 mg/kg murine TNF-α i.v.
Protocol: Hypothermia and morbidity induced by a high dose of TNF-α is considered in the literature to be a model for systemic inflammatory response syndrome (SIRS) (Moerke C, et al. (2019); Newton K, et al. (2014); Duprez L, et al. (2011)). All mice (8 weeks old) used in this experiment were on C57BL/6 background and age-, sex-, and weight-matched. Recombinant carrier-free murine TNF-α was obtained from R&D Systems (Bio-Techne, Wiesbaden, Germany). Each mouse received a single bolus of 1 mg murine TNF-α/kg body weight in a total volume of […] phosphate-buffered saline, via the tail vein. In this setting, mice received 15 min before TNF-α application a single intraperitoneal (i.p.) injection (total volume per mouse was 200 μl) of either 2.5% DMSO in PBS (vehicle) or 10 mg primidone/kg body weight (as indicated). Thereafter, the animals (n=16 per group) were placed under permanent observation and survival was checked every 15 min. Survival is depicted in a Kaplan-Meier plot (*** p<0.001).

[2] = Kidney ischemia-reperfusion injury (IRI) mouse model; format: in vivo; settings: mice
Protocol: IRI is a clinically highly relevant model, since it is an unavoidable consequence after kidney transplantation and contributes to acute kidney injuries in various contexts (Müller et al., 2017). To test whether primidone could be used to suppress pathophysiological RIPK1-mediated cell death in renal IRI, mice were provided with a drinking solution containing either primidone at 2.875 mM or vehicle in the regular drinking water for five days prior to ischemia reperfusion surgery until the end of the reperfusion phase. Induction of murine kidney IRI was performed via a midline abdominal incision and bilateral renal pedicle clamping for 37 min using microaneurysm clamps (Aesculap Inc., Center Valley, Pa., USA). Throughout the surgical procedure, mice were kept under isoflurane narcosis and the body temperature was maintained at 36° C. to 37° C. by continuous monitoring using a temperature-controlled self-regulated heating system (Fine Science Tools, Heidelberg, Germany). After removal of the clamps, reperfusion of the kidneys was confirmed visually before the abdomen was closed in two layers using standard 6-0 sutures. After 48 h reperfusion, the mice were sacrificed, blood samples were taken by retrobulbar punction and organs were collected for analysis.
For histology, kidney samples freshly obtained were fixed in 4.5% neutral-buffered formaldehyde and embedded in paraffin. Sections were dewaxed, rehydrated, and subjected to Masson trichrome staining according to routine protocols. Sections were dehydrated and mounted using DePeX mounting media (Serva). Stainings were evaluated in a blinded manner using a Leica Axiovert microscope and Axio Vision SE64 Rel 4.9. software (Leica Microsystems, Wetzlar, Germany). For data presentation, mild sharpening, contrast enhancement and gamma adjustment was performed. To analyze cell death of the tissue sections, a TdT-mediated dUTP nick end labelling (TUNEL) assay was performed using a fluorescence-based detection kit according to the manufacturer's instructions (G3250, Promega). Briefly, tissue sections were dewaxed, rehydrated, fixed in 4% paraformaldehyde and permeabilized with Proteinase K for 10 min at RT. Following this, the sections were equilibrated with the provided buffer for 10 min and labeled with the TdT reaction mix for 60 min at 37° C. in a humidified dark environment. […] Fluorescence micrographs (data not shown) were acquired with a 20× and 40× objective magnifications using a standard fluorescein filter set to view the green fluorescence at 520 nm with a Leica Axiovert microscope and Axio Vision SE64 Rel 4.9 software. Quantification of TUNEL-positive cells was performed manually by two blinded observers by evaluating 8 randomly selected fields of view per slide.

Jurkat cells = test: Anti-Fas antibody induced RIPK1-independent apoptosis; format: cell-based, human; settings: 5 ng/ml anti-Fas antibody, 5 h, zVAD 25 μM, primidone 1 mM
Protocol: To this end, human T cells (Jurkat cells) were incubated for 5 h at 37° C. in the presence of (a) vehicle, (b) 5 ng/ml anti-Fas antibody, (c) 5 ng/ml anti-Fas antibody in combination with 25 μM of the pan-caspase inhibitor zVAD, and (d) 5 ng/ml anti-Fas antibody in combination with 1 mM primidone. The addition of the anti-Fas antibody induces apoptosis, a caspase-dependent form of regulated cell death that can be inhibited by the addition of the pan-caspase inhibitor zVAD.

L929 cells = test: TLR3-mediated cell death induced by poly (I:C) + zVAD; format: cell-based, murine; settings: L929, 1 μg/ml poly (I:C) + 25 μM zVAD, 24 h; primidone 1 mM, Nec-1s 20 μM
Text: Cell death was induced by activation of the Toll-like receptor 3 (TLR3). TLR3 is mainly expressed on immune cells, where it senses pathogen-associated molecular patterns and initiates innate immune response. The TLR3 agonist poly (I:C) was developed to mimic pathogens infection and boost immune system activation. In experimental models, poly (I:C) is known to induce regulated cell death in cells expressing TLR3. To examine whether primidone also blocks TLR3-mediated cell death, murine L929 cells were stimulated for 24 h at 37° C. with vehicle (a), 1 μg/ml of the TLR3 ligand poly (I:C) alone (b) or in combination with 25 μM zVAD (c). In addition, cells were stimulated with 1 μg/ml poly (I:C), 25 μM zVAD and 20 μM Nec-1s (d) and with 1 μg/ml poly (I:C), 25 μM zVAD and 1 mM primidone (e).

RIPK1 = RIPK1 phosphorylation (Ser166) western blot after TSZ; format: cell-based, human; settings: U937, TSZ, 1 mM primidone
Protocol: It was tested whether primidone interferes with binding of TNF-α to its corresponding receptor TNFR1. To induce cell death, human U937 cells were treated in the absence (vehicle) or presence of 1 mM primidone with 100 ng/ml Fc-tagged TNF-α+1 μM SMAC mimetic SM164+25 μM zVAD (TSZ) for different time periods, followed by immunopurification of the immunoprecipitated TNF-α-induced complex I using μMACS™ protein A/G microbeads, and western blot analysis using a specific RIPK1 antibody.
It was then analyzed if the previously immunoprecipitated RIPK1 is activated by phosphorylation. For this purpose, the Western Blot shown before (FIG. 5) was “stripped” by chemically removing all reagents from the blot and re-developed with an antibody that only detects RIPK1 in its activate (i.e. phosphorylated) form.

[3] = primidone 2.875 mM in drinking water from 5 days before surgery, 37 min bilateral clamping, 48 h after reperfusion

In the case of `CCC1(c2ccccc2)C(=O)NCNC1=O` [primidone, 5-Ethyl-5-phenyl-1,3-diazinane-4,6-dione], the TNF-α-induced hypothermia [1] is reported as “significantly improves”, the “Survival after TNF-α injection” value ([1]; vs vehicle, p<0.001) is reported as “significantly enhanced survival” and the “Serum concentration of creatinine” value [2, 3] is reported as “significantly reduced”. For the same molecule, the “Serum concentration of urea” value [2, 3] was “significantly reduced”, the “TUNEL-positive cells (cells undergoing regulated cell death) in kidney sections” value ([2]; primidone 2.875 mM in drinking water, 48 h reperfusion) was “significant reduced number of cells undergoing regulated cell death” and the “Masson trichrome histology of renal outer medulla (tissue integrity)” value ([2]; primidone 2.875 mM in drinking water, 48 h reperfusion, data not shown) was “better preservation of tissue integrity”. The “Inhibition of anti-Fas antibody induced cell death (caspase-dependent, RIPK1-independent)” value (Jurkat cells) was “no inhibitory effect”, the “Protection from RIPK1-mediated cell death induced by poly (I:C) and zVAD” value (L929 cells) was “effectively protect cells” and the “Activation (phosphorylation) of RIPK1 at residue Ser166” value (RIPK1) was “completely blocked”.

— patent US20220331322A1, “COMPOUND FOR INHIBITING CELL DEATH” (Christian-Albrechts-Universität zu Kiel, priority 2019, published 2022)
